The test system of data set [1] is histamine-induced dyspnea. The data set can be described thus: Bronchodilator (in vivo) Guinea Pig Dyspnea. To be noted: 100 mg/kg, oral, one hour before histamine challenge. A digest of the protocol: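 Fasted, unanesthetized guinea pigs (250-350 g) received the test drug orally one hour before exposure to an aerosolized 0.1% histamine solution. Onset of dyspnea was recorded, and data were expressed as number tested over number survived.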

The subject of data set [2] is LOX human melanoma cell adhesion to human vitronectin. Description: LOX cell adhesion to vitronectin. The data set is classed as cell-based. Conditions: read-out: Vitronectin IC50. On the procedure: (§1) Adhesion assays were run essentially as described previously (Pai et al., J. Biomed. Res. 2: 53, 1992). 96-well plates were coated with human fibronectin (140 ng/well), human vitronectin (75 ng/well), human collagen I (100 ng/well), human collagen IV (100 ng/well), human fibrinogen (1 μg/well), murine laminin (600 ng/well), or polylysine, and incubated overnight in a humidified 37° C. incubator. Excess fibronectin or other substrate was then removed and 0.2 ml of 2 mg/ml bovine serum albumin (BSA)in Dulbecco's phosphate-buffered saline (DPBS) was added to each well, incubated for 2 hours at 37° C., and removed. LOX human melanoma cells, M27 murine lung carcinoma cells or B16F10 mouse melanoma cells were detached from tissue culture flasks with RPMI medium containing 0.2M urea and 10 mM EDTA, and 0.18 ml of cells were added to each well to a final cell concentration of 1×10^5 cells/well. For inhibition studies 20 μl of 10× compound was added to the wells prior to cell addition. Cells were allowed to adhere for 1 hour at 37° C. The wells were then gently washed twice with 0.2 ml DPBS. The fluorescent dye calcein AM (Molecular Probes, Eugene Oreg.) in DPBS (0.1 ml of 1 μM) was added to each well, and the plates were incubated for 1 hour at room temperature. Adherent cells were quantitated by reading the fluorescence on a Cytofluor 2300 fluorescent plate reader (Millipore) at 485 nm excitation and 530 nm emission.

Data set [3] relates to LOX human melanoma cell adhesion to human fibrinogen. The data set can be described thus: LOX cell adhesion to fibrinogen. To be noted: read-out: Fibrinogen IC50. The data set is classed as cell-based. On the procedure: as §1
For data set [4], the system named is LOX human melanoma cell adhesion to human fibronectin. The data set can be described thus: LOX melanoma cell adhesion to fibronectin. The format is cell-based. To be noted: Homo sapiens, LOX; for inhibition at 10 µM: read-out: % Inhibition at 10 μM; for inhibition at 50 µM: read-out: % Inhibition at 50 μM. A digest of the protocol: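 Compound added to fibronectin-coated (140 ng/well), BSA-blocked wells before LOX cells (1×10^5/well, detached with urea/EDTA). Cells adhered 1 h at 37 °C, then washed. Adherent cells quantified by calcein AM fluorescence (485/530 nm); IC50 for adhesion inhibition.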

A short description of data set [5]: Calcein cytotoxicity assay. The format is cell-based. Conditions: human, lox melanoma cells, calcein AM assay; for CC50 at 2 h: read-out: 2 Hr Tox LD50.
Data set [6] has as its system LOX human melanoma cell adhesion to human collagen IV. Description: LOX cell adhesion to collagen IV. The format is cell-based. Conditions: read-out: Collagen IV IC50. On the procedure:
as §1

The test system of data set [7] is LOX human melanoma cell adhesion to polylysine. The data set can be described thus: LOX melanoma cell adhesion to polylysine. The data set is classed as cell-based. To be noted: read-out: Poly Lys IC50.
Data set [8] deals with LOX human melanoma cell adhesion to murine laminin. Description: LOX cell adhesion to laminin. The format is cell-based. To be noted: read-out: Laminin IC50. On the procedure: as §1
Data set [9] deals with LOX human melanoma cell adhesion to human collagen I. Description: LOX cell adhesion to collagen I. The format is cell-based. Conditions: read-out: Collagen I IC50. On the procedure:
as §1

The next data set has as its system LOX human melanoma cells. Description: Tumor cell invasion through collagen/fibronectin coated membranes. The data set is classed as cell-based. On the procedure:
[…] Cell Invasion Through Collagen/Fibronectin Coated Membranes:
Nucleopore polycarbonate membranes (8 μm pore size) were coated with 0.05 ml of type I collagen and allowed to dry overnight. 210 μl of serum free DMEM with BSA was added to each Boyden chamber. Membranes were placed in chambers and upper chambers were screwed on. Human fibronectin (50 μl of 0.1 mg/ml solution in DMEM with BSA) was added to the top chamber and allowed to sit on membranes for 1 hour at room temperature. Compounds (50 μl) at 10× concentration in DMEM with BSA were added to the chambers. LOX melanoma cells were detached from flasks with trypsin/EDTA solution and resuspended in RPMI with 10% fetal bovine serum. Cells were centrifuged, washed 2× with DMEM with BSA, and resuspended in 10 ml of DMEM with BSA. LOX cells (0.45 ml of 7.8×10^5 cells per ml) were added to each chamber and chambers were incubated for 5 hours at 37° C. The medium was removed from the upper chamber by aspiration, the top chamber was unscrewed, and the membrane was removed. The membrane was inverted, pinned to a dissecting tray, and fixed with Diff Quik fixative for 3 minutes The fixative was then removed and Diff Quik Stain was added for 2 minutes. The stain was decanted and membranes were rinsed with distilled water. Membranes were inverted onto glass slides, and non-invading cells were wiped away with a cotton swab. Permount was added to the slide and the membrane was covered with a cover slip. The number of cells that invaded was quantitated on a Nikon TMS microscope with C-2 Image Analyzer software (Olympus Corp.).
The greater potency of the compounds in this assay (IC50 for compound B<400 nM) may result from the longer duration of this assay (5 hours) relative to the fibronectin adhesion assay (1 hour).

A short description of a further data set: MTT cytotoxicity assay. The format is cell-based. Conditions: human, lox melanoma cells, read-out: MTT 1 Hr LD50. On the procedure: LOX human melanoma cells, in RPMI medium with 2 mg/ml BSA and 25 mM HEPES, pH 7.4, were seeded at 4×10^4 cells/well in 96-well microtiter plates and grown overnight in a humidified 37° C. incubator. On the following day, the medium was aspirated and wells were washed once with 0.1 ml of DPBS. Compounds (0.1 ml) in DPBS were added to wells in quadruplicate at appropriate concentrations. The cells were then incubated with test compound for 1 hour at 37° C. Wells were aspirated and washed 2× with 0.1 ml DPBS. MTT [3-(4,5-Dimethylthiazol-2-yl)-2,5-diphenyltetrazolium bromide] (0.1 ml of 1 mg/ml solution in PBS from Sigma Chemical Co.) was added to each well and incubated for 2 hour at 37° C. MTT was aspirated and 0.1 ml of 50% N,N-dimethylformamide with 20% sodium dodecyl sulfate was added to each well. Plates were shaken for 10 minutes on a Titer-Plate shaker (Labline) at room temperature. Optical density was read at 570 nm with a plate-reading spectrophotometer (Dynatech MR5000).
On the technique in general: Tetrazolium assays rely on reduction of a dye to a coloured formazan, in cell work by metabolically active cells.

The target in another data set is ELAM-1 (Homo sapiens, UniProt P16581). Description: cell-based. On the procedure: Cell adhesion to ELAM-1 was measured essentially as described previously (Pal et al., J. Biomed. Res. 2: 53, 1992). Undifferentiated HL-60 leukemia cells were prelabelled for 30 minutes with 1 μM calcein AM in DPBS without calcium or magnesium, and the cells were washed twice with the same medium before addition to 96-well plates containing monolayers of mouse L cells (5×10^4 cells/well) transfected with cDNA for the adhesion molecule ELAM-1. Adhesion was allowed to proceed for 30 minutes at room temperature before washing and quantitation of the remaining fluorescent HL-60 cells as described above.
ELAM-1, sequence (P16581 22-610): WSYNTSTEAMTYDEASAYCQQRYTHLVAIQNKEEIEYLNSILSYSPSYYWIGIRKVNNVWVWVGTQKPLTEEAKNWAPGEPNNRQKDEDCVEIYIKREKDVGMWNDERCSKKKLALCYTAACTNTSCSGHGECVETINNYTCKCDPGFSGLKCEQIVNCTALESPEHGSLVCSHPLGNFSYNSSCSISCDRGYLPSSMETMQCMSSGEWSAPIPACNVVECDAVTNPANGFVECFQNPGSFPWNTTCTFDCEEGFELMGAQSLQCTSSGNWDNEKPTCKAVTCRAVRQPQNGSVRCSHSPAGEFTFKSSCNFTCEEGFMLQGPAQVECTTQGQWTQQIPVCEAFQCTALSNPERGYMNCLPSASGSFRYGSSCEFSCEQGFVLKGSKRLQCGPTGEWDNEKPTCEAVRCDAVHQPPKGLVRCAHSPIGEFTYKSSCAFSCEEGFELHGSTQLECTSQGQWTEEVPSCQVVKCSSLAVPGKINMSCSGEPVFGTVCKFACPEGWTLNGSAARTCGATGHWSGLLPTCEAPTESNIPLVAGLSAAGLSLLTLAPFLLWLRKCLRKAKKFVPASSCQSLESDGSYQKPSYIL
ELAM-1 (E-selectin) is a member of the selectin class of adhesion molecules.

The subject of data set [10] is B16-F10 mouse melanoma cell adhesion to fibronectin. Description: B16-F10 melanoma cell adhesion to fibronectin. The format is cell-based. To be noted: read-out: B16 FN IC50. On the procedure:
as §1

The target of another data set is T1, ICAM-1 (Homo sapiens, UniProt P05362).
T1 construct: recombinant soluble ICAM-1 (2 μg/well)
T1 sequence (P05362 28-480 limits assumed): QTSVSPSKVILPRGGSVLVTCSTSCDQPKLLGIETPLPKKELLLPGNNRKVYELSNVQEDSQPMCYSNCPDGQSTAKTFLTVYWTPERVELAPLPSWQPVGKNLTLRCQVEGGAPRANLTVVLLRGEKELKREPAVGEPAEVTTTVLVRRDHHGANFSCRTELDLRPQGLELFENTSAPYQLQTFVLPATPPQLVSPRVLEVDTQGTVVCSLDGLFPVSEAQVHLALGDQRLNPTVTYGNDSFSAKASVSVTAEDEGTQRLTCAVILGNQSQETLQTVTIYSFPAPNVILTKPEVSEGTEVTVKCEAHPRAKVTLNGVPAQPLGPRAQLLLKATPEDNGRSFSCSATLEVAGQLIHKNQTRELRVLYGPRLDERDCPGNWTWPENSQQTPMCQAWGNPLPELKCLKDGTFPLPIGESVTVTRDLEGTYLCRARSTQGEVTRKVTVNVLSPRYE
The data set can be described thus: HL-60 cell adhesion to recombinant soluble ICAM-1. The format is cell-based. Conditions: HL-60 cells. On the procedure: For measurement of cell adhesion to ICAM-1, HL-60 human leukemia cells were induced to differentiate in the presence of DMSO for 6 days. Adhesion of DMSO-differentiated HL-60 cells to recombinant soluble ICAM-1 (2 μg/well) was measured as described above for LOX cell adhesion, except that the adhesion was allowed to proceed for 30 minutes, rather than 1 hour, at 37° C.
ICAM-1 is a cell surface adhesion molecule that participates in cell-cell adhesion interactions, rather than cell-matrix adhesion interactions.

The subject of data set [11] is M27 murine lung carcinoma cell adhesion to fibronectin. Description: M27 lung carcinoma cell adhesion to fibronectin. The data set is classed as cell-based. Conditions: Mus musculus; read-out: M27 FN IC50. On the procedure: as §1

Read-outs that look alike come from different tables or passages of the source. Some results are limits rather than exact numbers.

What is called IC50 is the point on the concentration scale where inhibition reaches its midpoint. In general, inhibition refers to the change of the read-out against control, counted positive when it falls.

`CN1C2CCC1C1C(=C(c3ccccc3C(F)(F)F)c3ccccc31)C2` (centres unmarked) [Compound S]: the DYSP survivors in data set [1] is reported as 0/3. For the same compound, the 50% inhibitory concentration (IC50) was 20.2 µM in data set [2]; 15.7 µM in data set [3]; 17.7 µM in [4] (Table 4, 1 hour adhesion, read-out: LOX FN IC50); 17.7 µM in [4] (Table 5, read-out: Fibronectin IC50); 19.2 µM in [6]; over 250 µM in data set [7]. Also, the IC50 was found to be 7.7 µM in data set [8] and 11.6 µM in data set [9]. Also, the inhibition at 10 µM in [4] (10 μM) is -4.4%. Further, the inhibition at 50 µM in data set [4] (50 μM) worked out at 90.2%. Besides, in [5], the CC50 at 2 h is over 250 µM.

In the case of `CSc1ccc(C2=C3CC4CCC(C3c3ccccc32)N4C)cc1` (centres unmarked) [F, 1SR:3RS:9b-1,3 Ethano-2-methy-5-(p-methylmercaptophenyl)-1,3,4,9b-tetrahydro-2H-indeno-(2h-indeno) [1,2-c]pyridine], the IC50 with LOX human melanoma cells (Homo sapiens, 5 hours, read-out: Invasion IC50) was 0.52 µM; against ELAM-1, over 50 µM; in data set [10] it was 24.2 µM; on ICAM-1 it was 16.8 µM; in data set [11], 8.7 µM; in [4] (1 h, read-out: LOX FN IC50), 5.1 µM. For the same compound, the IC50 in data set [7] worked out at 24.4 µM. The “inhibition of in vitro tumor cell invasion” value in the data set with LOX human melanoma cells (fibronectin/collagen matrix) was “inhibit in vitro tumor cell invasion through a fibronectin/collagen matrix”. Further, in “MTT cytotoxicity assay”, the CC50 at 1 h was determined as 51.7 µM. In [1] (Cavia porcellus, 1 h, read-out: DYSP survivors (converted)), the responders at 100 mg/kg is 0%. Also, the inhibition at 10 µM in data set [4] came out at 49.4%. In data set [4], the inhibition at 50 µM is 102%. In data set [5], the CC50 at 2 h was 43.3 µM. Further, the CC50 at 6 h in [5] (6 hours, read-out: 6 Hr Tox LD50) is 19.9 µM.

These data come from patent US5461057A, “Hydro-ethano-indeno-pyridines” (priority 1994, dated 1995).
